Target: T1, EBP (Homo sapiens, UniProt Q15125)
T1 construct: HEK293T cells were utilized as the source of EBP enzyme; endogenous in cells; host or cells: HEK293T
Test: EBP Functional Assay (EBP immunoaffinity LC-MS assay)
Assay type: biochemical
Settings: EBP enzyme from HEK293T cells; 30 min with inhibitor, then zymosterol-d5, 37° C., 4 h; percent conversion to dehydrolathosterol-d5 by LC-APCI MRM MS
Experimental: The EBP immunoaffinity (IA) LC-MS assay measures the potency of small molecule inhibitors of EBP by quantifying their concentration-dependent changes in the enzyme's substrate and product using liquid chromatography atmospheric pressure chemical ionization multiple reaction monitoring mass spectrometry (LC-APCI MRM MS). HEK293T cells were utilized as the source of EBP enzyme. The enzyme was incubated with the small molecule inhibitors at variable concentrations for 30 min. Deuterated form of EBP substrate, zymosterol-d5 (Avanti Polar Lipids, Cat #700068P-1 mg), was then added and the plate was incubated at 37° C. for 4 h. Finally, the sterol isomers were extracted and injected to LC-APCI MRM MS. MRM transition used for the quantification for both zymosterol and […] (substrate and product of EBP enzymatic reaction, respectively) is 372.3-203.2, CE 30 and DP 80 in positive ion mode. Percent conversion of the zymosterol-d5 to dehydrolathosterol-d5 was used to derive IC50 curves. Tasin-1 (1′-[(4-Methoxyphenyl)sulfonyl]-4-methyl-1,4′-bipiperidine, CAS 792927-06-1) was used as the reference small molecule inhibitor.
Percent conversion versus the compound concentration data were fit to the following 4-parameter logistic model to generate IC50 curves: […]

T1 sequence (Q15125 whole entry): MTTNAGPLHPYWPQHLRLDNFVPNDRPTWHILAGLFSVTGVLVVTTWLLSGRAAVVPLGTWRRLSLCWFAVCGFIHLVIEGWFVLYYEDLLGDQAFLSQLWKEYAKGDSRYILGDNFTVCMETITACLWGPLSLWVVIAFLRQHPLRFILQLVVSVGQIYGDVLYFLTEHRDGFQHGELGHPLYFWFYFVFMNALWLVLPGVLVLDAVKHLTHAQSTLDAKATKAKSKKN

Row | SMILES | IC50 [nM]
1 | O=S(=O)(c1cnc(C(F)(F)F)cc1C1CC1)N1CC2(CN(CC3CCOCC3)C2)C1 [Example 122, 2-((4-cyclopropyl-6-(trifluoromethyl)pyridin-3-yl)sulfonyl)-6-((tetrahydro-2H-pyran-4-yl)methyl)-2,6-diazaspiro[3.3]heptane] | < 100
2 | CCN1CC2(C1)CN(S(=O)(=O)c1ccc(C(F)(F)F)nc1C)C2 [Example 170] | 250 to 4000
3 | Cc1cc(OC(F)(F)F)ccc1S(=O)(=O)N1CC2(CCN(C3CCOCC3)C2)C1 [Example 58] | < 100
4 | Cc1nc(C(F)(F)F)ccc1S(=O)(=O)N1CC2(CN(CC[C@@H]3COC(C)(C)O3)C2)C1 (racemic) [Example 173] | 100 to 250
5 | COc1cc(C)c(S(=O)(=O)N2CC3(CN(C4CCOCC4)C3)C2)cn1 [Example 168, 2-((6-methoxy-4-methylpyridin-3-yl)sulfonyl)-6-(tetrahydro-2H-pyran-4-yl)-2,6-diazaspiro[3.3]heptane] | 250 to 4000
6 | O=S(=O)(c1cc(C(F)(F)F)nn1CC1CC1)N1CC2(CN(CC3CCOCC3)C2)C1 [Example 66, 2-((1-(cyclopropylmethyl)-3-(trifluoromethyl)-1H-pyrazol-5-yl)sulfonyl)-6-((tetrahydro-2H-pyran-4-yl)methyl)-2,6-diazaspiro[3.3]heptane] | 250 to 4000
7 | O=S(=O)(c1cnc(C2CC2)s1)N1CCOC2(CN(C3CCOCC3)C2)C1 [Example 22, 8-((2-Cyclopropylthiazol-5-yl)sulfonyl)-2-(tetrahydro-2H-pyran-4-yl)-5-oxa-2,8-diazaspiro[3.5]nonane] | 250 to 4000
8 | O=S(=O)(c1cnc(C2CC2)s1)N1CCOC2(CCN(C3CC4(COC4)C3)C2)C1 (stereo not drawn) [Example 24, 9-((2-Cyclopropylthiazol-5-yl)sulfonyl)-2-(2-oxaspiro[3.3]heptan-6-yl)-6-oxa-2,9-diazaspiro[4.5]decane] | 100 to 250
9 | Cc1nc(C(F)(F)F)ccc1S(=O)(=O)N1CC2(CN(CC3(O)CCOCC3)C2)C1 [Example 187, 4-((6-((2-methyl-6-(trifluoromethyl)pyridin-3-yl)sulfonyl)-2,6-diazaspiro[3.3]heptan-2-yl)methyl)tetrahydro-2H-pyran-4-ol] | 250 to 4000
10 | O=S(=O)(c1ccc(C(F)F)nc1C1CC1)N1CC2(CN(C3CC4(COC4)C3)C2)C1 [Example 119, 2-((2-cyclopropyl-6-(difluoromethyl)pyridin-3-yl)sulfonyl)-6-(2-oxaspiro[3.3]heptan-6-yl)-2,6-diazaspiro[3.3]heptane] | 100 to 250
11 | Cc1nc(C(F)(F)F)ccc1S(=O)(=O)N1CC2(C1)CN([C@H]1C[C@@]3(CCO3)C1)C2 [Example 71, 2-((2-methyl-6-(trifluoromethyl)pyridin-3-yl)sulfonyl)-6-((4r,6r)-1-oxaspiro[3.3]heptan-6-yl)-2,6-diazaspiro[3.3]heptane] | 100 to 250
12 | O=S(=O)(c1ccc(OC(F)F)cc1F)N1CC2(CN(C3CCOCC3)C2)C1 [Example 227, 2-((4-(difluoromethoxy)-2-fluorophenyl)sulfonyl)-6-(tetrahydro-2H-pyran-4-yl)-2,6-diazaspiro[3.3]heptane] | 100 to 250
13 | O=S(=O)(c1ccc(C(F)(F)F)nc1C1CC1)N1CC2(CN(CC3COC3)C2)C1 [Example 209, 2-((2-cyclopropyl-6-(trifluoromethyl)pyridin-3-yl)sulfonyl)-6-(oxetan-3-ylmethyl)-2,6-diazaspiro[3.3]heptane] | 100 to 250
14 | Cn1nc(C(F)(F)F)cc1S(=O)(=O)N1CC2(CN(C3(C)CCOCC3)C2)C1 [Example 76, 2-((1-methyl-3-(trifluoromethyl)-1H-pyrazol-5-yl)sulfonyl)-6-(4-methyltetrahydro-2H-pyran-4-yl)-2,6-diazaspiro[3.3]heptane] | < 100
15 | Cc1nc(Br)ccc1S(=O)(=O)N1CC2(CN(C3CCOCC3)C2)C1 [Example 67, 2-((6-bromo-2-methylpyridin-3-yl)sulfonyl)-6-(tetrahydro-2H-pyran-4-yl)-2,6-diazaspiro[3.3]heptane] | 250 to 4000
16 | Cc1nc(C(F)(F)F)ccc1S(=O)(=O)N1CC2(CN(C(C)C3(C)COC3)C2)C1 (stereo not drawn) [Example 132] | 100 to 250
17 | O=S(=O)(c1ccc(C(F)(F)F)nc1)N1CC2(CN(CC3CCOCC3)C2)C1 [Example 229, 2-((tetrahydro-2H-pyran-4-yl)methyl)-6-((6-(trifluoromethyl)pyridin-3-yl)sulfonyl)-2,6-diazaspiro[3.3]heptane] | 250 to 4000
18 | Cn1nc(C(F)(F)F)cc1S(=O)(=O)N1CC2(CN(CC3CC4(COC4)C3)C2)C1 [Example 115] | < 100

Next, values leading:

Row | IC50 [nM] | SMILES
19 | 100 to 250 | COC1CCC(N2CC3(C2)CN(S(=O)(=O)c2ccc(C(F)F)nc2C2CC2)C3)CC1 (single isomer, unassigned) [Example 118, 2-((2-cyclopropyl-6-(difluoromethyl)pyridin-3-yl)sulfonyl)-6-(4-methoxycyclohexyl)-2,6-diazaspiro[3.3]heptane]
20 | < 100 | Cc1nc(C(F)(F)F)ccc1S(=O)(=O)N1CC2(CN(CCCOC3CCCC3)C2)C1 [Example 176]
21 | 250 to 4000 | N#Cc1cc(C(F)(F)F)ccc1S(=O)(=O)N1CC2(CN(CC3CCOCC3)C2)C1 [Example 228, 2-((6-((tetrahydro-2H-pyran-4-yl)methyl)-2,6-diazaspiro[3.3]heptan-2-yl)sulfonyl)-5-(trifluoromethyl)benzonitrile]
22 | < 100 | Cc1cc(C(F)(F)F)nc(C)c1S(=O)(=O)N1CC2(CN(CC3CCOCC3)C2)C1 [Example 102]
23 | 250 to 4000 | CC(C)(O)CN1CCC2(CC1)CN(S(=O)(=O)c1ccc(OC(F)F)cc1)CCO2 [Example 10, 1-(4-((4-(Difluoromethoxy)phenyl)sulfonyl)-1-oxa-4,9-diazaspiro[5.5]undecan-9-yl)-2-methylpropan-2-ol]
24 | < 100 | Cc1nc(C(C)(F)F)ccc1S(=O)(=O)N1CC2(CN(C3CCOCC3)C2)C1 [Example 79]
25 | 250 to 4000 | O=S(=O)(c1ccc(OC(F)F)cc1)N1CCOC2(CCN(CC3COC3)C2)C1 (stereo not drawn) [Example 17, 9-((4-(Difluoromethoxy)phenyl)sulfonyl)-2-(oxetan-3-ylmethyl)-6-oxa-2,9-diazaspiro[4.5]decane]
26 | 100 to 250 | Cc1cc(C(F)(F)F)nc(C)c1S(=O)(=O)N1CC2(CN(CC3COC3)C2)C1 [Example 104]
27 | 100 to 250 | Cc1ccc(S(=O)(=O)N2CC3(CN(CC4CCOCC4)C3)C2)c(C(F)(F)F)n1 [Example 106, 2-((6-methyl-2-(trifluoromethyl)pyridin-3-yl)sulfonyl)-6-((tetrahydro-2H-pyran-4-yl)methyl)-2,6-diazaspiro[3.3]heptane]
28 | 250 to 4000 | O=S(=O)(c1ccc(OC(F)F)cc1)N1CCOC2(CN(C3CCOCC3)C2)C1 [Example 1, 8-((4-(Difluoromethoxy)phenyl)sulfonyl)-2-(tetrahydro-2H-pyran-4-yl)-5-oxa-2,8-diazaspiro[3.5]nonane]
29 | 100 to 250 | CC1(O)CCC(N2CC3(C2)CN(S(=O)(=O)c2cnc(C(F)(F)F)cc2C2CC2)C3)CC1 (single isomer, unassigned) [Example 123, 4-(6-((4-cyclopropyl-6-(trifluoromethyl)pyridin-3-yl)sulfonyl)-2,6-diazaspiro[3.3]heptan-2-yl)-1-methylcyclohexan-1-ol]
30 | < 100 | Cc1nc(C(C)(F)F)ccc1S(=O)(=O)N1CC2(CN(CC3COC3)C2)C1 [Example 87]
31 | 100 to 250 | O=S(=O)(c1ccc(OC(F)F)cc1)N1[C@@H]2CC[C@H]1CC1(C2)CN(C2CCOCC2)C1 [Example 61, (1′R,5′S)-8′-((4-(Difluoromethoxy)phenyl)sulfonyl)-1-(tetrahydro-2H-pyran-4-yl)-8′-azaspiro[azetidine-3,3′-bicyclo[3.2.1]octane]]
32 | 250 to 4000 | O=S(=O)(c1cccnc1C(F)(F)F)N1CC2(CN(CC3CCOCC3)C2)C1 [Example 201, 2-((tetrahydro-2H-pyran-4-yl)methyl)-6-((2-(trifluoromethyl)pyridin-3-yl)sulfonyl)-2,6-diazaspiro[3.3]heptane]
33 | 100 to 250 | Cc1nc(C(F)(F)F)ccc1S(=O)(=O)N1CC2(CN(C3CCC(C)(O)CC3)C2)C1 (stereo not drawn) [Example 222, 1-methyl-4-(6-((2-methyl-6-(trifluoromethyl)pyridin-3-yl)sulfonyl)-2,6-diazaspiro[3.3]heptan-2-yl)cyclohexan-1-ol]
34 | < 100 | Cc1cc(C(F)(F)F)ncc1S(=O)(=O)N1CC2(CN(CC3CCOCC3)C2)C1 [Example 217, 2-((4-methyl-6-(trifluoromethyl)pyridin-3-yl)sulfonyl)-6-((tetrahydro-2H-pyran-4-yl)methyl)-2,6-diazaspiro[3.3]heptane]
35 | < 100 | Cc1nc(C(F)(F)F)ccc1S(=O)(=O)N1CC2(CN(C(C)C3COC3)C2)C1 (racemic) [Example 155, rac-2-((2-methyl-6-(trifluoromethyl)pyridin-3-yl)sulfonyl)-6-(1-(oxetan-3-yl)ethyl)-2,6-diazaspiro[3.3]heptane]
36 | 250 to 4000 | Cc1cc(C(F)(F)F)cnc1S(=O)(=O)N1CC2(CN(CC3CCOCC3)C2)C1 [Example 224, 2-((3-methyl-5-(trifluoromethyl)pyridin-2-yl)sulfonyl)-6-((tetrahydro-2H-pyran-4-yl)methyl)-2,6-diazaspiro[3.3]heptane]

Source: US20250171463A1 (BIOGEN MA INC., priority 2022, published 2025)
